Source: patent US20220168392A1 (priority 2019, published 2022)
Square brackets hold non-standard residues; d marks the D form. * marks the point of attachment. 2Nal = N[C@@H](Cc1ccc2ccccc2c1)C(=O)O; Propionyl = CCC(=O)*; Sar = CNCC(=O)O

Columns and labels:
[1] = test system: male BALB/c mice treated with carboplatin; assay: Carboplatin induced thrombocytopenia, anemia, mortality and brain microangiopathic events in mice; type: in vivo, mouse
Experimental: Materials and Methods: Increasing doses of carboplatin (i.e., 60, 70, or 80 mg/kg, i.p.) were administered on 2 consecutive days (Day 1 and Day 0) to male BALB/c mice (N=3 per group). Approximately 1 hour after carboplatin treatment on Day 0, sets of mice were treated with vehicle or RWJ-800088 (100 μg/kg, i.v.).
On Day 15, surviving mice were euthanized and blood samples were collected for the assessment of platelet and red blood cell (RBC) parameters. The brains of the mice were also isolated and preserved in 10% buffered formalin for immunohistochemical staining using anti-fibrinogen antibodies. Control mice were processed in a similar manner.

[2] = test system: subjects with cancer receiving platinum-based chemotherapy; assay: Study NAP1002: cancer patients receiving platinum-based chemotherapy; type: in vivo, human
Experimental: In the second randomized, double-blind Phase 1 study (NAP1002), 46 subjects with cancer receiving platinum-based chemotherapy were enrolled into 3 cohorts: 12 subjects received 1.5 μg/kg RWJ-800088, 12 subjects received 2.25 μg/kg, 10 subjects received 3 μg/kg, and 12 subjects received placebo within 2 hours before administration of platinum-based chemotherapy on Day 1 of the first of 2 chemotherapy cycles. There was a 21-day interval between each chemotherapy cycle.

[3] = test system: C57BL/6 mice exposed to TBI; assay: 30-day survival after TBI in C57BL/6 mice; type: in vivo, mouse
Description: Total Body Irradiation (TBI). Mice were irradiated bilaterally in the Cobalt-60 gamma-irradiation facility at the AFRRI. These animals were placed in well-ventilated plexiglass chambers made specifically for irradiating mice. An alanine/Electron Spin Resonance (ESR) dosimetry system (American Society for Testing and Material Standard E 1607) was used to measure the dose rates in the cores of acrylic phantoms (3 inches long and 1 inch in diameter) located in all empty slots of the exposure rack in the plexiglass chamber. ESR signals were measured with a calibration curve based on standard calibration dosimeters provided by the National Institute of Standard and Technology (NIST, Gaithersburg, Md.). The calibration curve was verified by inter-comparison with the National Physical Laboratory (NPL) in the United Kingdom. The corrections applied to the measured dose rates in phantoms were for decay of the Co-60 source and for a small difference in mass-energy absorption coefficients for water and soft tissue at the Co-60 energy level. Kaplan-Meier survival curves were plotted using GraphPad software; and trend in survival is compared between vehicle and drug-treated group.
The survival efficacy of RWJ-800088 was tested in C57BL/6 (another strain of mice with different radiation sensitivity compared to CD2F1) in males and females. […] All animals in saline treated groups (males and females) died whereas there was no mortality in RWJ-800088 treated groups 30 days post-TBI. […] All animals in saline treated groups died whereas there was 92% survival observed in the RWJ-800088 (24 h pre-TBI) treated group 30 days post-TBI.
To confirm the survival benefit provided by RWJ-800088 administration following TBI in another mouse strain with difference in radiation sensitivity, C57BL/6 male mice were irradiated at 8.0 Gy (˜LD70/30) followed by administration of a single subcutaneous dose of RWJ-800088 (1 mg/kg) at 24 h after TBI. The percentage of mice surviving on day 30 post-TBI for the RWJ-800088 treated group was 83% and for the saline treated group it was only 13% (2).

[4] = carboplatin 70 mg/kg, RWJ-800088 100 μg/kg i.v., Day 15
[5] = C57BL/6 Both genders, 7.76 Gy, 0.3 mg/kg single dose, Post 6 hr
[6] = C57BL/6 Both genders, 7.76 Gy, 0.3 mg/kg single dose, Post 24 hr
[7] = C57BL/6 Both genders, 7.96 Gy, 0.3 mg/kg single dose, Post 6 hr
[8] = C57BL/6 Both genders, 7.96 Gy, 0.3 mg/kg single dose, Post 24 hr
[9] = C57BL/6 F, 8.75 Gy, 3 mg/kg single dose, Pre −24 hr
[10] = C57BL/6 M, 8.75 Gy, 3 mg/kg single dose, Pre −24 hr

## methoxypolyethyleneglycol20000-propionyl-L-Isoleucyl-L-Glutamyl-Glycyl-L-Prolyl-L-Threonyl-L-Leucyl-L-Arginyl-L-Glutaminyl-L-2-Naphthylalanyl-L-Leucyl-L-Alanyl-L-Alanyl-L-Arginyl-Sarcosyl-Ne-(methoxypolyethyleneglycol20000-propionyl-L-Isoleucyl-L-Glutamyl-Glycyl-L-Prolyl-L-Threonyl-L-Leucyl-L-Arginyl-L-Glutaminyl-L-2-Naphthylalanyl-L-Leucyl-L-Alanyl-L-Alanyl-L-Arginyl-Sarcosyl-)-Lysinamide ({mPEG 20 kDa-Propionyl}-IEGPTLRQ[2Nal]LAAR[Sar]K-NH2; also: dimer: second identical mPEG-propionyl chain on Lys Nε of C-terminal lysinamide) [RWJ-800088]
[1]; Mice, carboplatin chemotherapy, whole wrapped cell: Protection against thrombocytopenia, anemia and vascular hemorrhage in the brain
  Effects: Protection against
[1]; [4]
  fibrinogen staining of brain sections (immunohistochemistry): appeared normal with the intensity of fibrinogen staining similar to vessels in the brains of control mice
  signs of hemorrhage or edema in brain: none of the brains isolated from mice co-treated with RWJ-800088 exhibited signs of hemorrhage or edema
[1]; carboplatin 60, 70 or 80 mg/kg i.p. on 2 consecutive days, RWJ-800088 100 μg/kg i.v. ~1 hour after carboplatin on Day 0
  platelet and RBC counts on Day 15: prevented the observed decreases in platelet and RBC counts
[1]; carboplatin 60-80 mg/kg i.p. x2 days, RWJ-800088 100 μg/kg i.v.
  mortality / euthanization: none of the mice treated with RWJ-800088 died or required euthanization
[2]; 1.5 μg/kg
  nadir and peak mean platelet counts vs placebo: similar
[2]; 1.5 μg/kg, each cycle
  day up to which mean platelet counts continued to decline: 15 days
[2]; 3 μg/kg
  platelet nadir and peak platelet counts, fold higher relative to placebo: approximately 2 fold
[2]; 3.0 μg/kg, both cycles
  day of peak mean platelet counts: 15 days
[2]; 1.5, 2.25, and 3 μg/kg
  serious adverse event of thrombocythemia (number): 1
[2]; 1.5, 2.25, and 3 μg/kg with platinum-based chemotherapy
  tolerability: well-tolerated
[2]; 2.25 and 3.0 μg/kg, each cycle
  day on which mean platelet counts were lowest: 10 days
[2]; 2.25 or 3.0 μg/kg
  nadir and peak platelet counts, fold higher than placebo: approximately 2 fold
[2]; Across cycles, 1.5 μg/kg
  Maximum Platelet Counts, GMR (Active/Placebo): 1.0
  Maximum Platelet Counts, Geometric Mean: 374760 µL⁻¹
  Minimum Platelet Counts, GMR (Active/Placebo): 0.6
  Minimum Platelet Counts, Geometric Mean: 34570 µL⁻¹
[2]; Across cycles, 2.25 μg/kg
  Maximum Platelet Counts, GMR (Active/Placebo): 1.6
  Maximum Platelet Counts, Geometric Mean: 574270 µL⁻¹
  Minimum Platelet Counts, GMR (Active/Placebo): 2.7
  Minimum Platelet Counts, Geometric Mean: 165790 µL⁻¹
[2]; Across cycles, 3.0 μg/kg
  Maximum Platelet Counts, GMR (Active/Placebo): 1.8
  Maximum Platelet Counts, Geometric Mean: 662940 µL⁻¹
  Minimum Platelet Counts, GMR (Active/Placebo): 2.2
  Minimum Platelet Counts, Geometric Mean: 134260 µL⁻¹
[2]; Cycle 1, 1.5 μg/kg
  Maximum Platelet Counts, GMR (Active/Placebo): 1.1
  Maximum Platelet Counts, Geometric Mean: 329180 µL⁻¹
  Minimum Platelet Counts, GMR (Active/Placebo): 0.5
  Minimum Platelet Counts, Geometric Mean: 46800 µL⁻¹
[2]; Cycle 1, 2.25 μg/kg
  Maximum Platelet Counts, GMR (Active/Placebo): 1.9
  Maximum Platelet Counts, Geometric Mean: 564360 µL⁻¹
  Minimum Platelet Counts, GMR (Active/Placebo): 2.3
  Minimum Platelet Counts, Geometric Mean: 217590 µL⁻¹
[2]; Cycle 1, 3.0 μg/kg
  Maximum Platelet Counts, GMR (Active/Placebo): 2.1
  Maximum Platelet Counts, Geometric Mean: 642690 µL⁻¹
  Minimum Platelet Counts, GMR (Active/Placebo): 2.0
  Minimum Platelet Counts, Geometric Mean: 188250 µL⁻¹
[2]; Cycle 2, 1.5 μg/kg
  Maximum Platelet Counts, GMR (Active/Placebo): 0.9
  Maximum Platelet Counts, Geometric Mean: 294150 µL⁻¹
  Minimum Platelet Counts, GMR (Active/Placebo): 0.9
  Minimum Platelet Counts, Geometric Mean: 76170 µL⁻¹
[2]; Cycle 2, 2.25 μg/kg
  Maximum Platelet Counts, GMR (Active/Placebo): 1.3
  Maximum Platelet Counts, Geometric Mean: 401870 µL⁻¹
  Minimum Platelet Counts, GMR (Active/Placebo): 2.2
  Minimum Platelet Counts, Geometric Mean: 177540 µL⁻¹
[2]; Cycle 2, 3.0 μg/kg
  Maximum Platelet Counts, GMR (Active/Placebo): 1.4
  Maximum Platelet Counts, Geometric Mean: 434100 µL⁻¹
  Minimum Platelet Counts, GMR (Active/Placebo): 2.2
  Minimum Platelet Counts, Geometric Mean: 179930 µL⁻¹
[2]; Day 42, 1.5 μg/kg
  Change From Baseline in Hemoglobin, Difference of LS Mean (SE) vs Placebo: 0.54 g/dL
  Change From Baseline in Hemoglobin, LS Mean (SE): −1.63 (0.50) g/dL
[2]; Day 42, 2.25 μg/kg
  Change From Baseline in Hemoglobin, Difference of LS Mean (SE) vs Placebo: 0.57 g/dL
  Change From Baseline in Hemoglobin, LS Mean (SE): −1.60 (0.42) g/dL
[2]; Day 42, 3.0 μg/kg
  Change From Baseline in Hemoglobin, Difference of LS Mean (SE) vs Placebo: 1.00 g/dL
  Change From Baseline in Hemoglobin, LS Mean (SE): −1.16 (0.47) g/dL
[2]; Day 42, 3.0-μg/kg group
  decrease of mean Hb concentration from baseline: 1.16 g/dL
[2]; Day 63, 1.5 μg/kg
  Change From Baseline in Hemoglobin, Difference of LS Mean (SE) vs Placebo: -0.75 g/dL
  Change From Baseline in Hemoglobin, LS Mean (SE): −2.98 (0.70) g/dL
[2]; Day 63, 2.25 μg/kg
  Change From Baseline in Hemoglobin, Difference of LS Mean (SE) vs Placebo: 0.68 g/dL
  Change From Baseline in Hemoglobin, LS Mean (SE): −1.55 (0.61) g/dL
[2]; Day 63, 3.0 μg/kg
  Change From Baseline in Hemoglobin, Difference of LS Mean (SE) vs Placebo: 0.79 g/dL
  Change From Baseline in Hemoglobin, LS Mean (SE): −1.44 (0.61) g/dL
[2]; Day 84, 1.5 μg/kg
  Change From Baseline in Hemoglobin, Difference of LS Mean (SE) vs Placebo: 0.05 g/dL
  Change From Baseline in Hemoglobin, LS Mean (SE): −1.88 (0.59) g/dL
[2]; Day 84, 2.25 μg/kg
  Change From Baseline in Hemoglobin, Difference of LS Mean (SE) vs Placebo: 0.03 g/dL
  Change From Baseline in Hemoglobin, LS Mean (SE): −1.90 (0.55) g/dL
[2]; Day 84, 3.0 μg/kg
  Change From Baseline in Hemoglobin, Difference of LS Mean (SE) vs Placebo: 1.13 g/dL
  Change From Baseline in Hemoglobin, LS Mean (SE): −0.80 (0.59) g/dL
[2]; Humans, Phase 1b study, whole wrapped cell: Protection against thrombocytopenia and anemia
  Effects: Protection against
[2]; lower doses (1.5, 2.25 μg/kg), both cycles
  day of mean peak platelet counts: 21 days
[2]; two subjects at 3.0 μg/kg, first cycle (stopping criteria)
  transient platelet increase, times the baseline: more than 3 times the baseline
[3]; [5]
  Survival Differential (Treatment-Vehicle): 25%
  Survival treatment: 100%
[3]; [6]
  Survival Differential (Treatment-Vehicle): 15%
  Survival treatment: 90%
[3]; [7]
  Survival Differential (Treatment-Vehicle): 45%
  Survival treatment: 100%
[3]; [8]
  Survival Differential (Treatment-Vehicle): 20%
  Survival treatment: 75%
[3]; [9]
  Survival Differential (Treatment-Vehicle): 100%
  Survival treatment: 100%
[3]; [10]
  Survival Differential (Treatment-Vehicle): 100%
  Survival treatment: 100%
[3]; C57BL/6 male and female, 8.75 Gy (LD100/30), 3 mg/kg 24 h prior to irradiation
  mortality 30 days post-TBI: no mortality
[3]; C57BL/6 male, 8.0 Gy (~LD70/30), single SC dose 1 mg/kg at 24 h after TBI
  percentage of mice surviving on day 30 post-TBI: 83%
